Results as given in patent US10300048B2, “Thiazolidinones as cellular anandamide uptake inhibitors and their use in the treatment of psychiatric or neurological disorders and inflammation, in particular neuroinflammation” (UNIVERSITAT BERN, priority 2014, dated 2019).

Experiments:
BALB/c mice = assay: In vivo tetrad test in BALB/c mice; details: 5.0 mg/kg i.p., vs. vehicle; for anti-nociceptive effect in the hot plate test / locomotion (RotaRod) / time spent in the immobile state (catalepsy, bar test): 60 min; for body temperature (tetrad test): 1 h post injection
Procedure: In vivo Tetrad Test in BALB/c Mice
In mice cannabimimetic substances induce a characteristic profile of behavioral effects (tetrad) which include suppression of locomotion, antinociception, hypothermia and catalepsy (Martin et al., 1991, Pharmacol Biochem Behav, 40, 471-8; Wiley, 2003, Eur J Pharmacol, 471, 185-93; Howlett et al., 2002, Pharmacol Rev, 54, 161-202). Male BALB/c mice (8 weeks old, 20-25 g body weight) were housed under standard environmental conditions (n=5 per cage) at 22-24° C. under a 12 h to 12 h light-dark cycle supplied with food and water ad libitum. ETI-T compounds were dissolved in pure DMSO and administered intraperitoneally (i.p) at doses of 5.0 mg/kg in 20 μL of vehicle 60 min prior to evaluation of behavioural effects. The tetrad test battery was carried out as follows: Rectal temperature was determined using a Physitemp thermometer (Physitemp Instruments Inc., Clifton, N.J. with a thermocoupled probe 1-2 cm into the rectum. The temperature was measured 10 min before compound administration and 1 h post injection. Changes in rectal temperature were expressed as the difference between basal and post injection temperatures. Catalepsy was determined using the bar test where mice were placed on a bar oriented parallel to and approximately 4-5 cm off of the ground. The duration of the time a mouse remained motionless (except respiration) with its front paws on the bar was scored over 40 s. Hypomotility was determined using the RotaRod performance test based on a rotating rod with forced motor activity being applied to the mouse. The maximal duration of this test was about 120 s at a velocity of 4 rpm. Analgesia was determined by the hot plate test. Mice were place on a heated plate (54-56° C.) in a Plexiglas cylinder for a maximum of 2 min. […] All experiments were repeated independently on different days. Animals were handled according to the guidelines on use and care of experimental animals (Mexican Official Norm NOM-062-ZOO-1999 published by SAGARPA in the Diario Oficial del Gobierno Mexicano, 2001), which is in accordance with the Code of Ethics of the Directive 2010/63/EU.
(§1) Statistical analysis and IC50 values were determined using GraphPad® Prism 5.0 (GraphPad® Software, San Diego, Calif., US). Inhibition curves were obtained by non-linear regression using the built-in log(inhibitor) vs. response-variable slope (four parameters) function. Results were calculated as % of vehicle control of the corresponding fraction (cells, aqueous phase) if not mentioned else. In vivo results are shown in absolute values and were analyzed by a one-way ANOVA following a Tukey's multiple comparison test or student's t-test. If not indicated else the results were compared vs. vehicle (CTRL). *** P<0.001, ** P<0.01, * P<0.05, ns=not significant P>0.05.

[1] = test system: TNF-alpha and IL-1beta in brain; assay: Endotoxemia mouse model (LPS), brain cytokines; type: in vivo, mice; details: 5 mg/kg i.p. 30 min prior to LPS 250 μg/100 g i.p., vs. vehicle, P<0.05
Procedure: Male BALB/c mice were injected i.p. with test compounds (5 mg/kg) or vehicle (DMSO, 20 μL) 30 min prior to LPS administration (250 μg/100 g body weight) in 50 μL saline solution. The administrations were conducted between 9:00 and 10:00 am. 30 min prior to scarification, 20 units (200 μL) of Inhepar® were injected subcutaneously. […] The brain was immediately removed on ice and stored in liquid nitrogen. […] The concentrations of the cytokines in brain and plasma were measured using commercially available Luminex MagPix cytokines assay (BioRad) specific for mice, according to the manufacturer's instructions. The acquisition of the fluorescent signal was achieved by a charged-coupled device (CCD) imager. The concentration of the analytes was determined by MAGPIX xPONENT. The assays were run in triplicates and the concentrations were expressed in pg/mL based on a standard curve.
as §1

Compound: COc1cc(/C=C2\S/C(=N\c3ccccc3)N(c3ccccc3)C2=O)ccc1O [Compound 6]
- anti-nociceptive effect in the hot plate test (BALB/c mice): anti-nociceptive effect
- locomotion (RotaRod) (BALB/c mice): reduced locomotion
- body temperature (tetrad test) (BALB/c mice): decreased body temperature

Compound: COc1ccc(/C=C2\S/C(=N\c3ccc(OC)cc3)N(c3ccc(OC)cc3)C2=O)cc1 [Compound 5]
- IL-1beta level in total brain ([1]; after 2 hours): Decrease
- TNF-alpha level in total brain ([1]; after 2 hours): Decrease
- IL-1beta level in total brain ([1]; after 8 hours): Decrease
- TNF-alpha level in total brain ([1]; after 8 hours): Decrease
- anti-nociceptive effect in the hot plate test (BALB/c mice): anti-nociceptive effect
- locomotion (RotaRod) (BALB/c mice): reduced locomotion
- time spent in the immobile state (catalepsy, bar test) (BALB/c mice): increased time spent in the immobile state
- body temperature (tetrad test) (BALB/c mice): decreased body temperature

Compound: O=C1/C(=C/c2cc(Cl)c(O)c(Cl)c2)S/C(=N\c2ccccc2)N1Cc1ccco1 [Compound 23]
- anti-nociceptive effect in the hot plate test (BALB/c mice): anti-nociceptive effect
- time spent in the immobile state (catalepsy, bar test) (BALB/c mice): increased time spent in the immobile state
- body temperature (tetrad test) (BALB/c mice): decreased body temperature
